Test results taken from patent publication US7074789B2, “Kinase inhibitors” (Amgen Inc., priority 1999, dated 2006).
Read-outs that look alike come from different tables or passages of the source.

Key:
Format in all cases: biochemical
EGFR = target: T1, EGFR (Homo sapiens, UniProt P00533); assay: Kinase inhibition assay (33P transfer), EGFR; settings: Table 2, kinase inhibition class; read-out: EGFR-1
T1 construct: Kinases are expressed as either kinase domains or full length constructs; made in house
In short: (§1)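 Read-out: scintillation counts of 33P moved from ATP onto synthetic peptide polymer coated on the well surface, after washing with 0.5% phosphoric acid. Enzymes were tagged (GST or polyHistidine) and came from bacterial or insect-cell expression. IC50 marks 50% loss of incorporated label.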

AKT = target: T2, AKT (Homo sapiens, UniProt Q9Y243); assay: Kinase inhibition assay (33P transfer), AKT; settings: Table 2, kinase inhibition class; read-out: AKT3-1
T2 construct: Kinases are expressed as either kinase domains or full length constructs; made in house
In short: (§2)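 Filterless plate radiometric format: immobilized poly(Glu,Tyr) 4:1 or poly(Arg,Ser) 3:1, 33P-labelled ATP, tagged recombinant kinase (some with regulatory partners). Incorporated label counted after phosphoric acid wash.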

Tek = target: T3, Tek (Homo sapiens, UniProt Q02763); assay: Kinase inhibition assay (33P transfer), Tek; settings: read-out: Tek-1
T3 construct: Kinases are expressed as either kinase domains or full length constructs; made in house
In short: as §1

Kdr = target: T4, Kdr (Homo sapiens, UniProt P35968); assay: Kinase inhibition assay (33P transfer), Kdr; settings: read-out: KDR-1
T4 construct: Kinases are expressed as either kinase domains or full length constructs; made in house
In short: as §2

Lck = target: T5, Lck (Homo sapiens, UniProt P06239); assay: Kinase inhibition assay (33P transfer), Lck; settings: read-out: Lck-1
T5 construct: Kinases are expressed as either kinase domains or full length constructs; made in house
In short: as §2

Itk = target: T6, Itk (Homo sapiens, UniProt Q08881); assay: Kinase inhibition assay (33P transfer), Itk; settings: read-out: Itk-1
T6 construct: Kinases are expressed as either kinase domains or full length constructs; made in house
T6 sequence (Q08881 1-620): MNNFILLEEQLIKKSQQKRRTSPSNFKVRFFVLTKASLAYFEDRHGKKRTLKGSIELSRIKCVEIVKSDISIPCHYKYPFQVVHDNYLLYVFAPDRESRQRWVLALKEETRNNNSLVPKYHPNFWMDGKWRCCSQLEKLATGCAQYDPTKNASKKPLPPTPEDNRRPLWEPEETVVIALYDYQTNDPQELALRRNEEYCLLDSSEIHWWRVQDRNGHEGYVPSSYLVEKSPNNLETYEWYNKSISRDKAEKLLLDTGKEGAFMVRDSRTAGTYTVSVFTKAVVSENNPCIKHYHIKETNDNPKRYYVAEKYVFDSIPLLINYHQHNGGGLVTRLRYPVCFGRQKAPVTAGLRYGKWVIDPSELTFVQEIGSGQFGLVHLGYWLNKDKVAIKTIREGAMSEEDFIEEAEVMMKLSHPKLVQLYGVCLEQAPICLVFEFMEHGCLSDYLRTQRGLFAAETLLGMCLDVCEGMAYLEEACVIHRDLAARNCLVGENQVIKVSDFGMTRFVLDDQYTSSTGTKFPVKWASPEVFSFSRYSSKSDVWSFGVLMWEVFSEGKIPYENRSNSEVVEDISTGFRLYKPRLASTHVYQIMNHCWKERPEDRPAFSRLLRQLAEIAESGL
In short: as §1

Zap-70 = target: T7, Zap-70 (Homo sapiens, UniProt P43403); assay: Kinase inhibition assay (33P transfer), Zap-70; settings: read-out: Zap-1
T7 construct: Kinases are expressed as either kinase domains or full length constructs; made in house
T7 sequence (P43403 1-619): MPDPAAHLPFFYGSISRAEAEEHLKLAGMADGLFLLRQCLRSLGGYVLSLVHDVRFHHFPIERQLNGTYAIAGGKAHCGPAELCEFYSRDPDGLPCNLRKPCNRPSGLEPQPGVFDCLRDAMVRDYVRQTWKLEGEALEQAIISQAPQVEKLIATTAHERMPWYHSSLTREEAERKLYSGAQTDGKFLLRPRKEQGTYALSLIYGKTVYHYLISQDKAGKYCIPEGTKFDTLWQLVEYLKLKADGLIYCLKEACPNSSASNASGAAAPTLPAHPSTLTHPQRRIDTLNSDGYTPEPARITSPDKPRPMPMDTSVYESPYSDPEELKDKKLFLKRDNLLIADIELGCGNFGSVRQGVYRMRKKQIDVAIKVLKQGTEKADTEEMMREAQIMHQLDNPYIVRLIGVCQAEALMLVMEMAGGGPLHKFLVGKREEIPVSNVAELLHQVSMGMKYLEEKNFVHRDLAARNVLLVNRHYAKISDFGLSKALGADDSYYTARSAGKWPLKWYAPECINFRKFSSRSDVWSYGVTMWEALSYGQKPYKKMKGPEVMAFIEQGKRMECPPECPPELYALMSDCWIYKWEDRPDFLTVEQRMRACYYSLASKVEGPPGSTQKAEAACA
In short: as §2

c-Met = target: T8, c-Met (Homo sapiens, UniProt P08581); assay: Kinase inhibition assay (33P transfer), c-Met; settings: Table 2, kinase inhibition class; read-out: Met-1
T8 construct: Kinases are expressed as either kinase domains or full length constructs; made in house
In short: as §1

T5 sequence (P06239 whole entry, species assumed, the tested form may be a part): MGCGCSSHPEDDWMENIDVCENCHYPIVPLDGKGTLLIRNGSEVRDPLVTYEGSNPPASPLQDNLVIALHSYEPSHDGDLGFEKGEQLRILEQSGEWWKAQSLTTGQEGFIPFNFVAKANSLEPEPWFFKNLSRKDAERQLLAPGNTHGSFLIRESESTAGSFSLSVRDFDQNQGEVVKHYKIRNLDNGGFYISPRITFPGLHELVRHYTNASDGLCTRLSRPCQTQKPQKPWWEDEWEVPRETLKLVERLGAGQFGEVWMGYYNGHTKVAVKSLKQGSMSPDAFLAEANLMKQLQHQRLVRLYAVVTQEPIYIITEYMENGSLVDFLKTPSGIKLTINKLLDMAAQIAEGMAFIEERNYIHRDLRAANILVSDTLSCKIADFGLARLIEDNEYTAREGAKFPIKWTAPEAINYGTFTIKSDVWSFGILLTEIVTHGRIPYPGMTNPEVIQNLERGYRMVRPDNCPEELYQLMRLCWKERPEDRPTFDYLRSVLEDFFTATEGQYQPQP
T8 sequence (P08581 25-1390): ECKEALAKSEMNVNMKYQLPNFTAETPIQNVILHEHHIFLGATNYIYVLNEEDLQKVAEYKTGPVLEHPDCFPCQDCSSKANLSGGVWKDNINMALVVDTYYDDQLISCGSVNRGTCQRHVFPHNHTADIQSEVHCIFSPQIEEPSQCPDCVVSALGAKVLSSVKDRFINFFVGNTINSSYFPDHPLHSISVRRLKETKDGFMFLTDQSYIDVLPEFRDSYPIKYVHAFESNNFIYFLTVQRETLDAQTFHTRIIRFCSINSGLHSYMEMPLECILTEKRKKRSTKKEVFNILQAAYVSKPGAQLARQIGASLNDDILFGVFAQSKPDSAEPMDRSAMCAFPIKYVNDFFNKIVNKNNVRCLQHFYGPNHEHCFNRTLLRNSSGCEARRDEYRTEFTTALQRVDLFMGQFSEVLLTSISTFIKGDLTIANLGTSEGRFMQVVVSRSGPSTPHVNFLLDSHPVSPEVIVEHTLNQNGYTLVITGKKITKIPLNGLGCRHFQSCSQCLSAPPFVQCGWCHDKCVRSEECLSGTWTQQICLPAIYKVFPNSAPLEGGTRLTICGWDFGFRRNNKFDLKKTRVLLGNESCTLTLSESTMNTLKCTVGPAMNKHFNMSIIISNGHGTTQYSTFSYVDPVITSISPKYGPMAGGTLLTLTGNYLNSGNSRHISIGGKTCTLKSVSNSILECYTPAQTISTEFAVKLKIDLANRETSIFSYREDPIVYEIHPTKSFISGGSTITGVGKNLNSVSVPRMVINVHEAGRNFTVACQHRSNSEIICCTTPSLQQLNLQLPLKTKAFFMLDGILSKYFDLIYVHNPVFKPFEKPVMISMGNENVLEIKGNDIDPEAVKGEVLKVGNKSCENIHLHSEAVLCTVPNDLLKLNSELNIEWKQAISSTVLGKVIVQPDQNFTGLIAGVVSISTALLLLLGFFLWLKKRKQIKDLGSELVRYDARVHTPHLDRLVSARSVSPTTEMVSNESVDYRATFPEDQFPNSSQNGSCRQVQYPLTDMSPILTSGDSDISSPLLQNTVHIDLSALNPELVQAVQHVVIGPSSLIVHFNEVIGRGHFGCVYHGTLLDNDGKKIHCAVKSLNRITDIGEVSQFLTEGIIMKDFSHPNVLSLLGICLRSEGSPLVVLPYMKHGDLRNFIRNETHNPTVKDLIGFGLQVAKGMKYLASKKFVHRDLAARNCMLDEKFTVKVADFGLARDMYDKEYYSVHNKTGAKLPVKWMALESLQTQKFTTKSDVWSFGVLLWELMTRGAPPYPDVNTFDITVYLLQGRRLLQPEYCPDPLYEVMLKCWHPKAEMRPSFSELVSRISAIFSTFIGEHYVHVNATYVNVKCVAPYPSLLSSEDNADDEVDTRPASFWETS
T1 sequence (P00533 25-1210, species assumed): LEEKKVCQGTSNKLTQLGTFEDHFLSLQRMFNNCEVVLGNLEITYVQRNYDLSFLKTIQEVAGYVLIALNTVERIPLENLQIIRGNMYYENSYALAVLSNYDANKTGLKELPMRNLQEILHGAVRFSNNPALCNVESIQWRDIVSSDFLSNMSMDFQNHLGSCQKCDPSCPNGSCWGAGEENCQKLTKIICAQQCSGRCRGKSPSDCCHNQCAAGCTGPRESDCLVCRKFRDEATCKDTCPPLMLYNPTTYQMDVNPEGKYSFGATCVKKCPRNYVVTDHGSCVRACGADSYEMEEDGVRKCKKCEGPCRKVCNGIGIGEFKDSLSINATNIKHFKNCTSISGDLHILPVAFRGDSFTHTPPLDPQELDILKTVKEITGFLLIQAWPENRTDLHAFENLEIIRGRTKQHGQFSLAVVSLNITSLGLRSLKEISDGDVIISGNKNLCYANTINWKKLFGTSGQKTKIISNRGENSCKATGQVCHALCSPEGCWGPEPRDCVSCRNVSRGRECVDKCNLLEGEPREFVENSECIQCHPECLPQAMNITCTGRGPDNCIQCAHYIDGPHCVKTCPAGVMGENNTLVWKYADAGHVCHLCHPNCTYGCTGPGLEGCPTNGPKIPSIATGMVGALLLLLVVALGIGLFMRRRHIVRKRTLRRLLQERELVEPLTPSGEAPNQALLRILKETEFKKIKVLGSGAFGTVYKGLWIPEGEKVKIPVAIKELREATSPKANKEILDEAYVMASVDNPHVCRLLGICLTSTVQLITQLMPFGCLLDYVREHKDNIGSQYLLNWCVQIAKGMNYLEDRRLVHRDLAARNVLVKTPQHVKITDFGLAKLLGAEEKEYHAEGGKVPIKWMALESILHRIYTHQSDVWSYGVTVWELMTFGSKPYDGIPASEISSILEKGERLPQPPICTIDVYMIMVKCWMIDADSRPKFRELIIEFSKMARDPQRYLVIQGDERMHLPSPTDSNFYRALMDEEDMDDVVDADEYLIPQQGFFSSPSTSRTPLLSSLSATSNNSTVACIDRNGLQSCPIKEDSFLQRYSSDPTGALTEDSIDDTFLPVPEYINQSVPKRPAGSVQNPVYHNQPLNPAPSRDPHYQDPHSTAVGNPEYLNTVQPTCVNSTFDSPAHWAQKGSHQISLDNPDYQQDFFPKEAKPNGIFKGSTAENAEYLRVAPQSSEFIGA
T2 sequence (Q9Y243 whole entry, the tested form may be a part): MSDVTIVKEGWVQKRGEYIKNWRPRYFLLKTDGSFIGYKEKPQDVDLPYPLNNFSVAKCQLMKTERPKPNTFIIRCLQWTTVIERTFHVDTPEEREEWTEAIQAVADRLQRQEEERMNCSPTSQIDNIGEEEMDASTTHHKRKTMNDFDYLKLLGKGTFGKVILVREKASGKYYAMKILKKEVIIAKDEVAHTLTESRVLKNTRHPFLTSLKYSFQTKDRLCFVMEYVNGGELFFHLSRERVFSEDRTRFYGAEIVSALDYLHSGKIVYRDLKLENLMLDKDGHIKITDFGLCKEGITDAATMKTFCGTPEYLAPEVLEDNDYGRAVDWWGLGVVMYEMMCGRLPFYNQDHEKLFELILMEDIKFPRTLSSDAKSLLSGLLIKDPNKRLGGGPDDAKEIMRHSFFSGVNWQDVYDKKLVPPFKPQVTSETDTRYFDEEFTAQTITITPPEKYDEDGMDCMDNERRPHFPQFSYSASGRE
T3 sequence (Q02763 23-1124, species assumed): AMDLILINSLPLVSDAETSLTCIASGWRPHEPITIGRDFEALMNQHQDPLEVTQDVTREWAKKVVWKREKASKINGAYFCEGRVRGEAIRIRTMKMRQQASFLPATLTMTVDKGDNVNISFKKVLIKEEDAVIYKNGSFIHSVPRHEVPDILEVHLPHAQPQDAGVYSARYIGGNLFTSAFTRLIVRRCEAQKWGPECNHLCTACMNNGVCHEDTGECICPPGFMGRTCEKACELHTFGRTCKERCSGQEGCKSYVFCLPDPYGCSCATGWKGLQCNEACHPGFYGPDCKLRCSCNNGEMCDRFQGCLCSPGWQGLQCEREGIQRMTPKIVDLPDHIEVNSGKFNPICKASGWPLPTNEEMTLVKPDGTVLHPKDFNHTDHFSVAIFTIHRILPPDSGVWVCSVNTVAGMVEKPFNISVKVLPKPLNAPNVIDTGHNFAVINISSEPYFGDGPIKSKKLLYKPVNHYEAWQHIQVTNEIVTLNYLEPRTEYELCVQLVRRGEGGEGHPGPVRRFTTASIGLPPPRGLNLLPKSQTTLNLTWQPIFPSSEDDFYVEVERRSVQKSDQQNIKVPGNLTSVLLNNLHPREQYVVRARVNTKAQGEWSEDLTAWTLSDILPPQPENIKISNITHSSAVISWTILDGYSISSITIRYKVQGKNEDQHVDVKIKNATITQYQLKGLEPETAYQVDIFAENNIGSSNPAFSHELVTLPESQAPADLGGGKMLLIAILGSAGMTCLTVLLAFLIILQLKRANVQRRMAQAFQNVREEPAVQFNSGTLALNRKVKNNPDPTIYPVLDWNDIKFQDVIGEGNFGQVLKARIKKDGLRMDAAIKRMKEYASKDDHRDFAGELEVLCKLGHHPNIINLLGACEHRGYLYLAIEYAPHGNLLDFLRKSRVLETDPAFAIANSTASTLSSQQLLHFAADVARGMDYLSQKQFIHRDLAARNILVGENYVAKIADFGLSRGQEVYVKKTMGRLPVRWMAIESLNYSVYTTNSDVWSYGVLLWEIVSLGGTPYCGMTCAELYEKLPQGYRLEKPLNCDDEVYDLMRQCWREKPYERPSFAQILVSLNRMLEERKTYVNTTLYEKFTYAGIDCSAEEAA

| SMILES | IC50 (EGFR) [µM] | IC50 (AKT) [µM] | IC50 (Tek) [µM] | IC50 (Kdr) [µM] | IC50 (Lck) [µM] | IC50 (Itk) [µM] | IC50 (Zap-70) [µM] | IC50 (c-Met) [µM] | IC50 (Kdr; Table 3) [µM] | IC50 (Lck; Table 3) [µM] | IC50 (Itk; Table 3) [µM] | IC50 (Zap-70; Table 3) [µM] |
| --- | --- | --- | --- | --- | --- | --- | --- | --- | --- | --- | --- | --- |
| Nc1nc2ccccc2n1-c1ncnc(Nc2ccc(Cl)cc2)n1 [Compound 478] | 1.18 to 7.11 | 1.18 to 7.11 | 1.18 to 7.11 | 1.18 to 7.11 | 1.18 to 7.11 | 1.18 to 7.11 | 1.18 to 7.11 | 1.18 to 7.11 | – | – | – | – |
| COc1cc(Nc2ncnc(Nc3cccc(NC(=O)O[C@@H]4CCOC4)c3)n2)cc(OC)c1OC [Compound 694] | 0.829 to 4.97 | > 9.33 | 7.25 to 9.33 | 0.829 to 4.97 | 0.829 to 4.97 | 4.97 to 7.25 | > 9.33 | > 9.33 | – | – | – | – |
| COc1ccc(Nc2ncnc(-n3c(=O)[nH]c4ccccc43)n2)cc1OC [Compound 494] | 6.59 to 9.61 | > 12.4 | > 12.4 | < 1.1 | 6.59 to 9.61 | > 12.4 | > 12.4 | > 12.4 | – | – | – | – |
| COc1cc(Nc2ncnc(-n3c(NCCCc4ccccc4)nc4ccccc43)n2)cc(OC)c1OC [Compound 945] | > 8.8 | > 8.8 | > 8.8 | 0.782 to 4.69 | 6.84 to 8.8 | > 8.8 | > 8.8 | > 8.8 | – | – | – | – |
| O=c1[nH]c2ccccc2n1-c1ncnc(Nc2cc(C(F)(F)F)cc(C(F)(F)F)c2)n1 [Compound 506] | > 10.2 | > 10.2 | 5.45 to 7.95 | > 10.2 | 7.95 to 10.2 | > 10.2 | > 10.2 | > 10.2 | – | – | – | – |
| COc1cc(Nc2ncnc(-n3c(N[C@H](C)c4ccccc4)nc4ccccc43)n2)cc(OC)c1OC [Compound 1034] | > 9.04 | > 9.04 | > 9.04 | < 0.804 | 0.804 to 4.82 | > 9.04 | > 9.04 | 7.03 to 9.04 | – | – | – | – |
| O=c1[nH]c2ccccc2n1-c1ncnc(Nc2cccc([N+](=O)[O-])c2)n1 [Compound 467] | > 12.9 | > 12.9 | 6.87 to 10 | – | – | – | – | > 12.9 | 1.15 to 6.87 | > 12.9 | > 12.9 | 6.87 to 10 |
| O=C(O)Cc1ccc(Nc2ncnc(Nc3cc(-c4ccccc4)n[nH]3)n2)cc1 [Compound 982] | 1.03 to 6.2 | 9.03 to 11.6 | 1.03 to 6.2 | < 1.03 | 1.03 to 6.2 | 1.03 to 6.2 | 1.03 to 6.2 | 1.03 to 6.2 | – | – | – | – |
| Nc1nc2ccccc2n1-c1ncnc(Nc2ccc(-c3ccccc3)cc2)n1 [Compound 480] | 1.05 to 6.33 | 1.05 to 6.33 | 1.05 to 6.33 | 1.05 to 6.33 | 1.05 to 6.33 | 9.22 to 11.9 | 1.05 to 6.33 | 1.05 to 6.33 | – | – | – | – |
| COc1cc(Nc2ncnc(-c3ccc(NCCCO)nc3)n2)cc(OC)c1OC [Compound 497] | > 10.9 | > 10.9 | > 10.9 | < 0.97 | 8.49 to 10.9 | > 10.9 | > 10.9 | > 10.9 | – | – | – | – |
| O=c1[nH]c2ccccc2n1-c1ncnc(Nc2ccc(Cl)cc2Cl)n1 [Compound 504] | > 12.1 | > 12.1 | 1.07 to 6.43 | > 12.1 | > 12.1 | > 12.1 | > 12.1 | > 12.1 | – | – | – | – |
| CC(C)(C)c1ccc(Nc2ncnc(-n3c(N)nc4ccccc43)n2)cc1 [Compound 525] | > 12.5 | > 12.5 | 6.68 to 9.74 | 6.68 to 9.74 | 6.68 to 9.74 | 6.68 to 9.74 | > 12.5 | 9.74 to 12.5 | – | – | – | – |
| Nc1ncnc(Nc2ccc3c(c2)OCO3)n1 [Compound 1025] | 15.1 to 19.5 | > 19.5 | > 19.5 | – | – | – | – | > 19.5 | 10.4 to 15.1 | > 19.5 | > 19.5 | 15.1 to 19.5 |
| O=c1[nH]c2ccccc2n1-c1ncnc(Nc2ccc(Br)c(Cl)c2)n1 [Compound 483] | 0.958 to 5.75 | > 10.8 | 0.958 to 5.75 | 0.958 to 5.75 | 5.75 to 8.38 | > 10.8 | 0.958 to 5.75 | > 10.8 | – | – | – | – |
| COc1cc(Nc2ncnc(-c3cccc4ccccc34)n2)cc(OC)c1OC [Compound 611] | > 11.6 | > 11.6 | 6.18 to 9.01 | 1.03 to 6.18 | 1.03 to 6.18 | 9.01 to 11.6 | > 11.6 | > 11.6 | – | – | – | – |
| Nc1nc2ccccc2n1-c1ncnc(Nc2ccc(S(N)(=O)=O)cc2)n1 [Compound 923] | > 11.8 | > 11.8 | > 11.8 | < 1.05 | 9.15 to 11.8 | 1.05 to 6.28 | > 11.8 | 1.05 to 6.28 | – | – | – | – |
| COc1cc(Nc2ncnc(Nc3ccc(C(C)=O)cc3)n2)cc(OC)c1OC [Compound 698] | 6.07 to 8.85 | > 11.4 | 8.85 to 11.4 | < 1.01 | < 1.01 | 1.01 to 6.07 | > 11.4 | > 11.4 | – | – | – | – |
| O=c1[nH]c2ccccc2n1-c1ncnc(Nc2cccc(-c3cnco3)c2)n1 [Compound 418] | 1.08 to 6.46 | 1.08 to 6.46 | 9.42 to 12.1 | – | – | – | – | > 12.1 | < 1.08 | 1.08 to 6.46 | 9.42 to 12.1 | > 12.1 |
| COc1cc(Nc2ncnc(-n3c(OCc4ccccn4)nc4ccccc43)n2)cc(OC)c1OC [Compound 690] | > 9.27 | > 9.27 | > 9.27 | < 0.824 | > 9.27 | > 9.27 | > 9.27 | > 9.27 | – | – | – | – |
| Nc1nc2ccccc2n1-c1ncnc(Nc2ccc(OC(F)(F)F)cc2)n1 [Compound 647] | 1.03 to 6.2 | > 11.6 | > 11.6 | 1.03 to 6.2 | > 11.6 | > 11.6 | > 11.6 | > 11.6 | – | – | – | – |
| Nc1nc2ccccc2n1-c1ncnc(N2C(=O)c3ccccc3C2=O)n1 [Compound 653] | > 12.6 | > 12.6 | > 12.6 | > 12.6 | > 12.6 | > 12.6 | > 12.6 | > 12.6 | – | – | – | – |
